Test: T1 relaxation in human full blood
Type: physicochemical
Conditions: human full blood at 37° C.
Source text: The amount of alanine, bicarbonate and lactate is dependent on the metabolic status of the tissue under investigation.

T1 relaxation: about 42 s
Structure (SMILES): CC(=O)[13C](=O)O [^13C-pyruvate]

Reference: patent US9272056B2, “Method to produce hyperpolarised carboxylates” (GE Healthcare AS, priority 2005, dated 2016)
